Consider 18 compounds from BindingDB's records for doi:10.1016/j.bmc.2003.11.015 (Bristol-Myers Squibb Pharmaceutical Research Institute, 2004).

Experiment [1] deals with D(2) dopamine receptor (Rattus norvegicus, UniProt P61169).
Another experiment addresses D(1A) dopamine receptor (Rattus norvegicus, UniProt P18901).
In experiment [2] the target is D(2) dopamine receptor (Homo sapiens, UniProt P14416).

Counter-ions that a name gives are not always drawn.

Chain of D(2) dopamine receptor (Homo sapiens, UniProt P14416) (P14416 whole entry): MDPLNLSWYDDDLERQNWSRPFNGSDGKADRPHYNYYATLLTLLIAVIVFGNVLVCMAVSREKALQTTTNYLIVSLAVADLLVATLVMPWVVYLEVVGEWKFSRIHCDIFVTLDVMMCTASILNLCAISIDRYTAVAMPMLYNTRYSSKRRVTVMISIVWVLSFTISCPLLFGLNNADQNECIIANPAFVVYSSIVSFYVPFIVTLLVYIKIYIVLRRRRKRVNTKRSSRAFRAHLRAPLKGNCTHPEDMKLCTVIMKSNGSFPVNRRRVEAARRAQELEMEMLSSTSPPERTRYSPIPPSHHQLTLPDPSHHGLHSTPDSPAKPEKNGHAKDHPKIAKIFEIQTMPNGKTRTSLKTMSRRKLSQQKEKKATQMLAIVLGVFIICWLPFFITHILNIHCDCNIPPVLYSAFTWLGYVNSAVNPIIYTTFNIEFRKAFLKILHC
Chain of D(1A) dopamine receptor (P18901 whole entry): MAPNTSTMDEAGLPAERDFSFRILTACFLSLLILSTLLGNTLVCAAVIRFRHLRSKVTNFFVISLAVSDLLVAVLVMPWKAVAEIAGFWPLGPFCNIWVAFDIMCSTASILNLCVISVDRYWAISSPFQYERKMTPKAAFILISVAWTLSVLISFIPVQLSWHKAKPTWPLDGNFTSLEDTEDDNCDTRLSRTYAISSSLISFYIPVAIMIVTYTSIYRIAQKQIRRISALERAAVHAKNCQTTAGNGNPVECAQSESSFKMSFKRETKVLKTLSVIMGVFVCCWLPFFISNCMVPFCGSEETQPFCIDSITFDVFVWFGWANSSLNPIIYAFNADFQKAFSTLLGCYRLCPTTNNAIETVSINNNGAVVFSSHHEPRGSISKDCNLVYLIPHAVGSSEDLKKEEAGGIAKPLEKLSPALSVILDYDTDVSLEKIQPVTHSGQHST
Chain of D(2) dopamine receptor (Rattus norvegicus, UniProt P61169) (P61169 whole entry): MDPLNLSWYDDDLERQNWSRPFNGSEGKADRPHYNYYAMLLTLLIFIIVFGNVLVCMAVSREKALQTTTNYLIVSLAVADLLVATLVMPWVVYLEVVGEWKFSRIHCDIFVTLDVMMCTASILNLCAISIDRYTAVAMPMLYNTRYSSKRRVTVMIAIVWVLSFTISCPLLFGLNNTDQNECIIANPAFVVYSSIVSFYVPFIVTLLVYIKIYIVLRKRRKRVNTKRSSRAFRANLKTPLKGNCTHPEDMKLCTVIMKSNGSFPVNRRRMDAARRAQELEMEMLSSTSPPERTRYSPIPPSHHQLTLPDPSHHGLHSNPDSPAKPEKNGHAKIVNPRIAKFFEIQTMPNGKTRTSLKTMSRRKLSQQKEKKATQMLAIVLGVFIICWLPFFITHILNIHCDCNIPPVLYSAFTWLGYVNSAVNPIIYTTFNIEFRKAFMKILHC

In the case of `Oc1ccc2c(c1O)Cc1cccc3c1[C@H]2CNC3C(F)(F)C(F)(F)C(F)(F)C(F)(F)F` (mixture of isomers) [NSC_0], the inhibition constant Ki (commonly a measure of affinity in units of concentration, obtained from inhibition or displacement) on D(2) dopamine receptor [1] was determined as 0.078 µM; at D(1A) dopamine receptor, 0.34 µM.

At D(1A) dopamine receptor, `CCCCC1NC[C@H]2c3ccc(O)c(O)c3Cc3cccc1c32` (mixture of isomers) [(+/-)-3-n-butyldinapsoline hydrobromide] yielded an inhibition constant (Ki) of 0.299 µM.

Take `CC1NC[C@H]2c3ccc(O)c(O)c3Cc3cccc1c32` (mixture of isomers) [(+/-)-3-methyldinapsoline hydrobromide]: the Ki on D(2) dopamine receptor [2] was 0.04 µM; on D(1A) dopamine receptor, 2 µM.

Take `Oc1ccc2c(c1O)Cc1ccc(F)c3c1[C@H]2CNC3` [NSC_0]: the inhibition constant Ki on D(2) dopamine receptor [1] was determined as 0.028 µM; on D(1A) dopamine receptor it was 0.069 µM.

For `Oc1ccc2c(c1O)Cc1c(F)ccc3c1[C@H]2CNC3` [NSC_0], the inhibitory constant (Ki) at D(2) dopamine receptor [1] was 0.007 µM.

As to `Oc1ccc2c(c1O)Cc1ccc(O)c3c1[C@H]2CNC3` [4-hydroxydinapsoline hydrobromide], the Ki on D(2) dopamine receptor [1] stood at 0.015 µM; on D(1A) dopamine receptor it was 0.072 µM.

As to `Oc1cc(Cl)c2c(c1O)Cc1cccc3c1[C@H]2CNC3` (racemic) [CAS_0], the inhibition constant (Ki) came to 0.016 µM on D(2) dopamine receptor [1] and 1.5 µM at D(1A) dopamine receptor.

On to `Oc1ccc2c(c1O)Cc1c(F)ccc3c1C2CNC3` (centres undefined) [NSC_0], for which the Ki on D(2) dopamine receptor [1] was 0.17 µM; on D(1A) dopamine receptor, 3 µM.

As to `COC(=O)CC1c2cccc3c2[C@@H](CNC3)c2ccc(O)c(O)c21` (mixture of isomers) [(+/-)-7-methoxycarbonylmethyldinapsoline], the figures for the Ki at D(2) dopamine receptor [1] and at D(1A) dopamine receptor were 0.99 µM and 2.4 µM, respectively.

For the compound `Oc1ccc2c(c1O)Sc1cccc3c1C2CNC3` (centres undefined) [1,2,3,11b-Tetrahydro[1]benzothiopyrano[4,3,2-de]isoquinolin-8,9-diol], the Ki on D(2) dopamine receptor [1] came out at 0.0345 µM; on D(1A) dopamine receptor, 0.536 µM.

`CCc1ccc2c3c1Cc1c(ccc(O)c1O)[C@@H]3CNC2` [6-ethyldinapsoline hydrobromide]: the values for the Ki at D(2) dopamine receptor [2] and on D(1A) dopamine receptor were 0.027 µM and 0.014 µM, respectively.

As to `CCC1c2cccc3c2[C@@H](CNC3)c2ccc(O)c(O)c21` (mixture of isomers) [(+/-)-7-ethyldinapsoline hydrobromide], the Ki on D(2) dopamine receptor [1] was 0.44 µM; at D(1A) dopamine receptor it was 0.43 µM.

Turning to `CC1c2cccc3c2[C@@H](CN1C)c1ccc(O)c(O)c1C3` (mixture of isomers) [NSC_0], the Ki was more than 10 µM at D(2) dopamine receptor [2] and 9.5 µM at D(1A) dopamine receptor.

Take `CN1Cc2cccc3c2[C@@H](C1)c1ccc(O)c(O)c1C3` (racemic) [NSC_0]: the results for the Ki on D(2) dopamine receptor [1] and on D(1A) dopamine receptor were 0.07 µM and 0.382 µM, respectively.

On to `CCCN1Cc2cccc3c2[C@@H](C1)c1ccc(O)c(O)c1C3` (racemic) [(+/-)-2-propyldinapsoline hydrobromide], for which the values for the inhibition constant (Ki) at D(2) dopamine receptor [2] and on D(1A) dopamine receptor were 0.015 µM and 2 µM, respectively.

As for `CC1(C)c2cccc3c2[C@@H](CNC3)c2ccc(O)c(O)c21` (racemic) [NSC_0], the Ki at D(2) dopamine receptor [1] was determined as 0.39 µM; at D(1A) dopamine receptor it was 0.87 µM.

For the compound `CC1c2cccc3c2[C@@H](CNC3)c2ccc(O)c(O)c21` (mixture of isomers) [(+/-)-7-methyldinapsoline hydrobromide], the Ki on D(2) dopamine receptor [1] was 0.16 µM; on D(1A) dopamine receptor, 0.139 µM.

As for `O=[N+]([O-])c1cc(O)c(O)c2c1[C@@H]1CNCc3cccc(c31)C2` (racemic) [NSC_0], the results for the inhibition constant (Ki) at D(2) dopamine receptor [1] and on D(1A) dopamine receptor were 1.1 µM and more than 10 µM, respectively.
